Experimental data published in a melting point compilation (Tetko et al.; mined from patent text by program, amines drawn as free bases though some values may be those of a salt).

melting point	Compound
102 °C	O=C(O)CCC(=O)N[C@@H]1CN2C(=O)N(c3cc(Cl)nc(Cl)c3)C(=O)[C@@]2(Cc2ccc(OC(F)(F)F)cc2)C1
122 °C	CC(C)(C)c1ccc(S(=O)(=O)N2c3ccccc3C[C@H]2C(=O)NCc2cccc(OCCC(=O)O)c2)cc1
130 to 132 °C	CCOC(=O)COc1cc2onc(-c3ccccc3F)c2cc1Br
245 to 248 °C	CCn1ccc(-c2sc(NC(=O)c3ccncc3)nc2-c2ccco2)cc1=O
139 to 142 °C	CCOC(=O)CCCCC(=O)c1ccc2cc(O)ccc2c1
196 to 197 °C	COc1ccc2c(c1)C(Cc1ccnc(F)c1)(Cc1ccnc(F)c1)c1cccnc1O2
138 to 140 °C	COc1cc(C(=O)COC(C)=O)ccc1OCCCN1CCC(C(O)(c2ccc(F)cc2)c2ccc(F)cc2)CC1
193 to 194 °C	O=C(O)Cc1coc2cc(OCc3cc(-c4ccc(Cl)cc4)on3)ccc12
225 to 230 °C	O=C(O)c1cn(CCc2ccc(C(F)(F)F)cc2)c2cc(C3CC3)nn2c1=O
147 to 149 °C	CC(=O)Nc1ccc(SCc2nc3ccccc3s2)cc1
162 to 164 °C	COc1ccc(S(=O)(=O)C(C)(CC=Cc2ccccc2)C(=O)NO)cc1 (stereo not given)
177 °C	CC(C)c1ccc(-c2nc(Cl)c(C=O)n2Cc2ccc(-c3ccccc3S(=O)(=O)N=CN(C)C)cc2)cc1
228 to 229 °C	Cc1cc(S(=O)(=O)NC(=O)c2cn3cc(C(F)(F)F)cc(Cl)c3n2)c(C)cc1C#N
93 to 97 °C	O=C(OCC1OC(n2cc(F)c(=O)[nH]c2=O)C(O)C1OC(=O)c1ccccc1)c1ccccc1 (stereo not given)
59 to 60 °C	CCCCCCCC(=O)c1ccc(CCOS(=O)(=O)c2ccc(C)cc2)cc1
203 to 204 °C	CC(C)c1ccc(NC(=O)N(C)C2N(C)C(c3ccc(F)cc3)=NC2(C(F)(F)F)C(F)(F)F)cc1 (stereo not given)
63 °C	CCCCN(CCCC)CCCOc1ccc(C(=O)c2c(C)oc3ccc([N+](=O)[O-])cc23)cc1
94 to 96 °C	O=Cc1cc(OCc2ccccc2)ccc1O
178 to 179 °C	O=C(Nc1ccc(OCc2ccccn2)nc1)N1CCc2ccc(C(F)(F)F)cc21
58 °C	CCN(CC)C(=O)CCc1nc(-c2ccccc2)cc2ccccc12
169 to 171 °C	Cc1ccc(C(=O)c2noc(CC(N)=O)n2)cc1
119 to 120 °C	CCOC(=O)C1(c2ccccc2)CCN(c2ncccn2)CC1
160 to 161 °C	O=C1CNC(=O)C(Cc2cccc(NCc3ccccc3)c2)N1 (stereo not given)
98 to 105 °C	CCCCC1c2sccc2CCN1CCNC(=O)c1ccc(NS(C)(=O)=O)cc1 (stereo not given)

melting point	Compound
250 °C	Oc1ccc2ccccc2c1N=Nc1ccc2[nH]nnc2c1
125 °C	Cc1ccc(C(=O)N2CCc3cc(S(=O)(=O)N4CC(c5ccccc5)NC4=O)ccc32)cc1 (stereo not given)
189 to 192 °C	COC(=O)c1cc(S(C)(=O)=O)ccc1OCc1ccccn1
151 to 156 °C	O=C(Nc1ccc(-n2nc(C(F)(F)F)cc2C2CC2)nc1)c1cccc(F)c1F
93 °C	CCc1cc(C(O)(CC)CC)ccc1-c1cc(OCc2ccc(CO)c(CO)c2)ccc1CC
250 °C	Cn1cc(C(=O)O)c(=O)c2c3cc(N4CCC[C@H]4CNc4ccccc4)c(F)cc3ncc21
249 °C	Cc1cc2cc(CN3CCC(CC(N)=O)CC3)cnc2cc1NC(=O)c1ccc(-c2ccc(F)cc2)cc1
96 to 97 °C	COC(=O)c1ccccc1OCCCOc1cc2c(cc1O)CCO2
138 to 139 °C	COc1cc(C=O)ccc1OCc1coc(-c2ccco2)n1
177 to 180 °C	Cc1nn(C)cc1C(=O)Nc1ccccc1-c1ccc(F)c(Cl)c1
160 to 162 °C	COC(=O)Nc1ccccc1CS(=O)c1ncc(C(F)(F)F)cc1Cl (stereo not given)
175 to 180 °C	O=C(Nc1cccc(F)c1F)c1ccc(-n2nc(C(F)(F)F)cc2C2CC2)c(F)c1
258 to 260 °C	O=C1c2ccccc2C(=O)c2c(O)c(S(=O)(=O)c3ccccc3)cc(O)c21
150 to 151 °C	CCOC(=O)c1ccc(N(CCOc2ccc(C#N)c3ccccc23)C(=O)C(F)(F)F)cc1
110 to 113 °C	Cc1c(SCCCCSCc2ccncc2)ccnc1CNc1cnc2ccccc2c1
129 to 131 °C	COc1ccc(OC)c(C(=O)c2cc3ccc(OC)cc3o2)c1
56 to 58 °C	Cc1nc2c(O[Si](C)(C)C(C)(C)C(C)C)c(CC[C@@H](O)c3ccccc3)c(C(=O)N(C)C)cn2c1C
158 to 161 °C	Oc1c(C(Nc2ccc(C(F)(F)F)cc2)c2ccccn2)ccc2cccnc12 (stereo not given)
238 to 240 °C	CC(C)(CC(=O)c1ccc2c(c1)CC(N1C(=O)c3ccccc3C1=O)C2)C(=O)O (stereo not given)
135 to 140 °C	COc1ccc(-c2ncccc2C=C(Cc2cc3c(cc2OC)OCO3)C(=O)O)c(OCc2ccccc2C(=O)O)c1
138 to 141 °C	CCCCc1nn2c(C)c(C)nc2n1Cc1ccc(-c2ccccc2-c2nnn[nH]2)cc1
> 300 °C	O=Cc1c(NC(Cc2ccccc2)C(=O)O)ncnc1-c1ccc(OCc2ccccc2)cc1 (stereo not given)
148 to 149 °C	COc1ccc(C(C)=NOCCOc2ccc(CC3SC(=O)NC3=O)cc2)cn1 (stereo not given)
167 to 170 °C	CC1(C)Oc2ccc(C#N)cc2C(C(=O)Nc2ccccc2)=C1O

Continued, molecule first:

Compound	melting point
O=C1C2C(C(=O)N1Cc1ccccc1)C2[N+](=O)[O-] (stereo not given)	108 to 109 °C
CCCCC1=Nc2ccccc2SN1	153 to 155 °C
CC(=O)Nc1ccc(F)cc1-c1ccc(Cl)c(Cl)c1	138 to 140 °C
CN1CCC(c2cccc(Cl)c2)(C(C)(C)O)CC1	149 to 150 °C
NC(=O)C(=O)c1c2n(c3ccccc13)CCNCC2	214 to 215 °C
CC(C)(C)OC(=O)NCCCN(CCCCOC(=O)NCNC(=O)CCCCCCNC(=O)OCc1ccccc1)C(=O)OC(C)(C)C	115 °C
CN(Cc1ccc2nsnc2c1)C1CCN(C(=O)c2ccc(Nc3nccc(Nc4ccc(F)cc4)n3)cc2)CC1	191 to 192 °C
Nc1ccc(NC(=O)c2ccc(N)cc2O)cc1	235 to 238 °C
Cc1nc2c(C)nn(C)c2c(=O)[nH]1	258 to 260 °C
CC1Cc2cc3c(cc2C(c2ccc([N+](=O)[O-])cc2)=NN1C(=O)CBr)OCO3 (stereo not given)	183 to 186 °C
Cc1nnc2n1-c1sccc1C(c1ccccc1[N+](=O)[O-])=NC2	260 to 262 °C
CN1CCN(c2c(Br)cc3c4c(cccc24)C(=O)N(O)C3=O)CC1	184 to 186 °C
CC(C)c1c[nH]c(S)n1	147 to 150 °C
COC(=O)CC(=O)Cc1cc(F)c(F)cc1F	37 to 39 °C
CN1c2cccc3cccc(c23)N(CCCN2CC=C(c3ccccc3)CC2)S1(=O)=O	146 °C
COC1(c2cc(F)cc(S(=O)(=O)c3ccc4c(ccc(=O)n4C)c3)c2)CCOC(C)C1 (stereo not given)	85 to 88 °C
CCC(O)C(=O)Nc1c(C)c(C)c2c(c1C)C(c1ccc(C(C)C)cc1)CO2 (stereo not given)	146 to 147 °C
CCCCSc1cnc2c(c1)CCC(c1ccc(Cl)c(Cl)c1)O2 (stereo not given)	59.5 to 61 °C
COC(=O)c1cc(OC(=S)N(C)C)c2cc(-c3ccc(OC)c(C45CC6CC(CC(C6)C4)C5)c3)ccc2c1C	137 to 138 °C
CN(C)c1n[nH]c(-c2ccc(Cl)cc2)c1CC(=O)O	157 to 168 °C
CC(C)n1nc(-c2c(-c3ccccc3)nn3ccc(N4CCN(S(=O)(=O)c5ccccc5)CC4)cc23)ccc1=O	219 to 220 °C
N=C(NS(=O)(=O)c1ccc(Cl)cc1)C1CN(c2ccc(Cl)cc2)C(c2ccc(Cl)cc2Cl)=N1 (stereo not given)	165 to 166 °C
NS(=O)(=O)c1cc(C(=O)c2ccc3c(c2)CCC3)ccc1Cl	164 to 166 °C
O=C(c1ccc(Br)s1)c1c(F)c(F)cc(F)c1F	51 to 54 °C

Compound	melting point
CCCCNC(=O)CN1C(=O)C(NC(=O)OCc2ccccc2)N=C(c2ccccc2)c2ccccc21 (stereo not given)	127 to 129 °C
CCSc1cc(C)nc(SCC)c1NC(=O)CCCCCCSc1nc2c(C)c(Cl)cc(C(C)C)c2o1	117 to 120 °C
COC(=O)C(=C(C)O)N1C(=O)C(N2C(=O)c3ccccc3C2=O)C1SC(C)=O (stereo not given)	178 to 183 °C
CCOC(=O)Nc1nc(C)c(-c2nc3ccccc3c(=O)n2-c2ccccc2Cl)s1	246 to 247 °C
CNC(=O)N(C)c1nnc(SCC(=O)OC(C)(C)C)s1	174 °C
c1ccc(C2CCN(c3nsc4ccccc34)CC2)cc1	175 to 177 °C
COc1ccc(OC)c(C=CCN2CCc3nc(N)sc3CC2)c1	112 to 115 °C
CCCN=C1SC(=CC(=O)O)C(=O)N1CCC	101 to 103 °C
CCn1c([N+](=O)[O-])cnc1-c1nnc2ccc(Cl)nn12	164 to 166 °C
O=C(O)[C@@H]1Cc2cc(Cl)cc(Cl)c2O[C@@H]1C(F)(F)F	100 to 101 °C
O=c1[nH]ncc2c(O)cccc12	351 to 355 °C
O=S(=O)(CCO)CCC(c1cc(F)ccc1F)S(=O)(=O)c1ccc(Cl)cc1 (stereo not given)	111 to 113 °C
O=C1Nc2ccccc2C(c2ccccc2F)=NC1Cc1cccs1 (racemic)	189 to 191 °C
Nc1ccc(NC(=O)CN2CCCCC2)cc1	106 to 107 °C
CNC(=O)c1ccc(-c2ccc3oc(C4CCN(C(=O)OC(C)C)CC4)nc3c2)cn1	158 to 161 °C
Cc1cc(C)c(Nc2nc(Nc3ccc(C#N)cc3)nc(Cl)c2Br)c(C)c1	220 to 221 °C
O=C(O)CCc1oc2cc(O)ccc2c(=O)c1C(=O)O	218 to 219 °C
O=C1c2cccc3cc(F)cc(c23)C(=O)N1O	244 to 247 °C
CC1(C)C(=O)Nc2cc3[nH]c(-c4ccc(Cl)c(Cl)c4)nc3cc21	320 to 325 °C
O=S1(=O)NCN(C2CCCCC2)c2ccc(Cl)cc21	233 to 235 °C
CN(C)C=CC=C(C#N)C(=O)N(C)C	149 to 150 °C
CCc1nc(C)cn1C(=O)c1c(Cl)cccc1[N+](=O)[O-]	116 to 118 °C
COc1ccc(S(=O)(=O)C2(C(=O)O)CCCC2)cc1	89 to 91 °C
